Results published in patent EP4722207A1, “OXOISOINDOLINYL-SUBSTITUTED TETRAHYDROPYRIMIDINEDIONE DERIVATIVE AND USE THEREOF” (Gluetacs Therapeutics (Shanghai) Co., Ltd., priority 2023, dated 2024).

Assays:
[1] = target: T1, IKZF2 (Homo sapiens, UniProt Q96SW2+Q9UKS7); assay: Western-blot assay, substrate protein degradation in hPBMCs: IKZF2; type: cell-based; conditions: for substrate protein remaining % IKZF2: 24 hours of compound treatment, 50 nM and 500 nM
T1 construct: effects of the compounds of the present disclosure on the expression of target proteins in cells; endogenous in cells; host or cells: human PBMCs (hPBMCs)

[2] = target: T2, IKZF3 (Homo sapiens, UniProt Q96SW2+Q9UKT9); assay: Western-blot assay, substrate protein degradation in hPBMCs: IKZF3; type: cell-based; conditions: for substrate protein remaining % IKZF3: 24 hours of compound treatment, 50 nM and 500 nM
T2 construct: effects of the compounds of the present disclosure on the expression of target proteins in cells; endogenous in cells; host or cells: human PBMCs (hPBMCs)

[3] = target: T3, CK1α (Homo sapiens, UniProt P48729+Q96SW2); assay: Western-blot assay, substrate protein degradation in hPBMCs: CK1α; type: cell-based; conditions: for substrate protein remaining % CK1α: 24 hours of compound treatment, 50 nM and 500 nM
T3 construct: effects of the compounds of the present disclosure on the expression of target proteins in cells; endogenous in cells; host or cells: human PBMCs (hPBMCs)

[4] = tested on: Jurkat; assay: Cell viability assay (CellTiter-Meiluncell Luminescent), tumor cell proliferation, Jurkat; conditions: Homo sapiens, 96 h, read-out: inhibitory activity (IC50, nM) against tumor cells proliferation, Jurkat
Method: On the following day, the test compounds of the present disclosure were subjected to serial dilution. […] Subsequently, 0.5 µL of the test compound dilution was transferred into the 96-well plate containing the cells, with each well containing 100 µL of cell culture medium. […] Into the 96-well plate, the diluted test compounds and corresponding detection reagents were added, resulting in final test compound concentrations of 500 nM and 10 nM, respectively.
After the cells were treated with the compounds of the present disclosure for a specified period, the cell viability assay reagent was added to the culture medium according to the kit's instructions to determine cell viability. […] All controls were treated using the same procedure as the compounds of the present disclosure. The growth inhibition curves for the compounds of the present disclosure were plotted using Prism GraphPad software, and the IC50 values were calculated therefrom.

[5] = target: T4, WEE1 (Homo sapiens, UniProt P30291+Q96SW2); assay: Western-blot assay, substrate protein degradation in hPBMCs: WEE1; type: cell-based; conditions: for substrate protein remaining % WEE1: 24 hours of compound treatment, 50 nM and 500 nM
T4 construct: effects of the compounds of the present disclosure on the expression of target proteins in cells; endogenous in cells; host or cells: human PBMCs (hPBMCs)

[6] = tested on: MM.1S; assay: Cell viability assay (CellTiter-Meiluncell Luminescent), tumor cell proliferation, MM.1S; conditions: Homo sapiens, MM1.S, 96 h, read-out: inhibitory activity (IC50, nM) against tumor cells proliferation, MM.1S
[7] = target: T5, IKZF1 (Homo sapiens, UniProt Q13422+Q96SW2); assay: Western-blot assay, substrate protein degradation in hPBMCs: IKZF1; type: cell-based; conditions: for substrate protein remaining % IKZF1: 24 hours of compound treatment, 50 nM and 500 nM
T5 construct: effects of the compounds of the present disclosure on the expression of target proteins in cells; endogenous in cells; host or cells: human PBMCs (hPBMCs)

[8] = target: T6, GSPT1 (Homo sapiens, UniProt P15170+Q96SW2); assay: Western-blot assay, substrate protein degradation in hPBMCs: GSPT1; type: cell-based; conditions: for substrate protein remaining % GSPT1: 24 hours of compound treatment, 50 nM and 500 nM
T6 construct: effects of the compounds of the present disclosure on the expression of target proteins in cells; endogenous in cells; host or cells: human PBMCs (hPBMCs)

[9] = compounds at 50 nM and 500 nM, 24 hours

T5 sequence (Q13422 whole entry): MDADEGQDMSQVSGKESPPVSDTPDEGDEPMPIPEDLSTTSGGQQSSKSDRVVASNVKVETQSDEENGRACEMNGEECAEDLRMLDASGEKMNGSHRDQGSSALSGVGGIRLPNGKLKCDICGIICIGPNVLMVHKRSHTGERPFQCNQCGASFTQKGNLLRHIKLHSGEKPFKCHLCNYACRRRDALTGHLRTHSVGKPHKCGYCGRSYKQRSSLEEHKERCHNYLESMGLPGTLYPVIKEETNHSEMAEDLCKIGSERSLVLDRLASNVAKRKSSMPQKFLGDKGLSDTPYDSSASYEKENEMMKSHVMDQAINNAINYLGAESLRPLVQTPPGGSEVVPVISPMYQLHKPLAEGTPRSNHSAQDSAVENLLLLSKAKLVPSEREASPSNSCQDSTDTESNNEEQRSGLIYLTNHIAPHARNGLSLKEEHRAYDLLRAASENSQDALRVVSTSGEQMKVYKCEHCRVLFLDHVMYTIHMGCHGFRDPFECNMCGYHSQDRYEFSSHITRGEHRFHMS
T5 sequence (Q96SW2 whole entry): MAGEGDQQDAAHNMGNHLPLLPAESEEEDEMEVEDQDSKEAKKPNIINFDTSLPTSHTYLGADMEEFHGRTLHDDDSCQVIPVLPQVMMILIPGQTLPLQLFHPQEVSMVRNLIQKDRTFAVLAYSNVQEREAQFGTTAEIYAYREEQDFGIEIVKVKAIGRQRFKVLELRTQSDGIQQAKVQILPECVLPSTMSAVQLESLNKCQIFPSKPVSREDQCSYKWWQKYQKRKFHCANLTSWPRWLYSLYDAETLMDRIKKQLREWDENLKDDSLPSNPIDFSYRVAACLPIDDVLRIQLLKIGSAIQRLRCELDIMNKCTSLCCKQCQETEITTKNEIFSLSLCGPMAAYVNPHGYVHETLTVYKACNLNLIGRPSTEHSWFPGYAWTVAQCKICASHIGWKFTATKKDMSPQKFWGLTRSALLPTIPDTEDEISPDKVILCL
T5 sequence (Q16531 whole entry partner): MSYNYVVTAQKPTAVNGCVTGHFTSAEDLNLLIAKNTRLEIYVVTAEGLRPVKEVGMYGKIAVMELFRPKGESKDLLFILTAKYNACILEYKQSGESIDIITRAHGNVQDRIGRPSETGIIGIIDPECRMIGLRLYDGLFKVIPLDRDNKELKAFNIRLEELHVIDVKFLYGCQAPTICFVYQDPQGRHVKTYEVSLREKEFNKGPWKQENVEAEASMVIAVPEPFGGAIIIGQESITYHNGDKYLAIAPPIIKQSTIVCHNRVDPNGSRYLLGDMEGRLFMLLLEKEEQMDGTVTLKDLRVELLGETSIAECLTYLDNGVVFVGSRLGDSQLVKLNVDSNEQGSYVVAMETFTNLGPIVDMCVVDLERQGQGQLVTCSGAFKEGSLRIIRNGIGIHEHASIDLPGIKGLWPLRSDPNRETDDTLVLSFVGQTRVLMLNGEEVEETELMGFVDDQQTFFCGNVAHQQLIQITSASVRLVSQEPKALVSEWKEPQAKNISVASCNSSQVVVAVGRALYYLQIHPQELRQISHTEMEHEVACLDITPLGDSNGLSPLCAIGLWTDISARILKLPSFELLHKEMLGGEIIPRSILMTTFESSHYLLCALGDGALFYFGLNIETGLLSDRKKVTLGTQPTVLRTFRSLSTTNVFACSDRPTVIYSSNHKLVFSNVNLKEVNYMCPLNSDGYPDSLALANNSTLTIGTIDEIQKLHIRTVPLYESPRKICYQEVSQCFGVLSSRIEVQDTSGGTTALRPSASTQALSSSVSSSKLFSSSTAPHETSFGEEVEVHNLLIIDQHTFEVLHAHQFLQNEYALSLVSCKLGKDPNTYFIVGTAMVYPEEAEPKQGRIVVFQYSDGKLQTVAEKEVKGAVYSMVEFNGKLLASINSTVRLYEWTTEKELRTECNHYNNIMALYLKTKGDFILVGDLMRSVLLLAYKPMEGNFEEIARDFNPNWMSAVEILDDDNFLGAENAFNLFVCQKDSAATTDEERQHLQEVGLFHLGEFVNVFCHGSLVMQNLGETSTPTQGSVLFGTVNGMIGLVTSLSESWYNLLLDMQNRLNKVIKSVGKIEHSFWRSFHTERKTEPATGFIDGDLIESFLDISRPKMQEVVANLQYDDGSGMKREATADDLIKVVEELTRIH
T2 sequence (Q9UKT9 whole entry): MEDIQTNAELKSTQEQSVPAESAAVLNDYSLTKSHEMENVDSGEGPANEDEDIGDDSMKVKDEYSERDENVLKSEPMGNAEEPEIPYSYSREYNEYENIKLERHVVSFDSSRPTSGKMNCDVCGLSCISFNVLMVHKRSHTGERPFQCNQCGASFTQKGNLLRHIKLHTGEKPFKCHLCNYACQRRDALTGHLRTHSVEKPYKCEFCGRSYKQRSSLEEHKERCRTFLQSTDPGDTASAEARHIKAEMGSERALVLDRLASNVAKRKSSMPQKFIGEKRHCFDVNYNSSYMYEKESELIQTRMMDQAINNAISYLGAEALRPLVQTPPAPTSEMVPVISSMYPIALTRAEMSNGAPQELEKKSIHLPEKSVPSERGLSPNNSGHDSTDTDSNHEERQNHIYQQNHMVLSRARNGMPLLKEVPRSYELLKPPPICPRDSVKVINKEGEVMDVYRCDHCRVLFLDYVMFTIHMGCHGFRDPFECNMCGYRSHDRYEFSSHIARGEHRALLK
T2 sequence (Q96SW2 whole entry): as the sequence (Q96SW2 whole entry) above
T2 sequence (Q16531 whole entry partner): as the sequence (Q16531 whole entry partner) above
T3 sequence (P48729 whole entry): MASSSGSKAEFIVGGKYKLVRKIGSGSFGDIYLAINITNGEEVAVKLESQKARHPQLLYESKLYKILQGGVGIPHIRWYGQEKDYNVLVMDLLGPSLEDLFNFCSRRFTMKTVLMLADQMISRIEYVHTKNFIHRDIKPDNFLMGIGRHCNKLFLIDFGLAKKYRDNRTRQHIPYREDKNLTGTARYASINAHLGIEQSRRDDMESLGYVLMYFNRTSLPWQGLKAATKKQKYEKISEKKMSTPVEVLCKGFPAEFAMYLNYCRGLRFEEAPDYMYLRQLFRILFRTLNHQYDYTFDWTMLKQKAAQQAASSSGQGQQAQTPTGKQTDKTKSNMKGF
T3 sequence (Q96SW2 whole entry): as the sequence (Q96SW2 whole entry) above
T3 sequence (Q16531 whole entry partner): as the sequence (Q16531 whole entry partner) above
T4 sequence (P30291 whole entry): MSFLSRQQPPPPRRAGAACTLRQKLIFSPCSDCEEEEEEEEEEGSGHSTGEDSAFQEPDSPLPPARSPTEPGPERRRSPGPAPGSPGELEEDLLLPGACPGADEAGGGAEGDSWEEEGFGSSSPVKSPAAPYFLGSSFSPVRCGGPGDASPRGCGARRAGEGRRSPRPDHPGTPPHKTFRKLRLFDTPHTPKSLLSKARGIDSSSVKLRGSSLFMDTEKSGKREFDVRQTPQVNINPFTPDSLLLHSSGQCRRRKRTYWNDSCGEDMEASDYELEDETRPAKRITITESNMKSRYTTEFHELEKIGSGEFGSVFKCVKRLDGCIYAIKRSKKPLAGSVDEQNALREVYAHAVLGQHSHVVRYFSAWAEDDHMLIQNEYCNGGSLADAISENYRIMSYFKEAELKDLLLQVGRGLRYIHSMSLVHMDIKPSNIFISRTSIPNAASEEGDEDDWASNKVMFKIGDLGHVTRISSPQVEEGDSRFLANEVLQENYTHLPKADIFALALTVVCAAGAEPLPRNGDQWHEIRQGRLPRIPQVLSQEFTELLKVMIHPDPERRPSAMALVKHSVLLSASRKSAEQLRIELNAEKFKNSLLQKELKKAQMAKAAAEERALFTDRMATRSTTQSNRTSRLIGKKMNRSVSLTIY
T4 sequence (Q96SW2 whole entry): as the sequence (Q96SW2 whole entry) above
T4 sequence (Q16531 whole entry partner): as the sequence (Q16531 whole entry partner) above
T1 sequence (Q9UKS7 whole entry): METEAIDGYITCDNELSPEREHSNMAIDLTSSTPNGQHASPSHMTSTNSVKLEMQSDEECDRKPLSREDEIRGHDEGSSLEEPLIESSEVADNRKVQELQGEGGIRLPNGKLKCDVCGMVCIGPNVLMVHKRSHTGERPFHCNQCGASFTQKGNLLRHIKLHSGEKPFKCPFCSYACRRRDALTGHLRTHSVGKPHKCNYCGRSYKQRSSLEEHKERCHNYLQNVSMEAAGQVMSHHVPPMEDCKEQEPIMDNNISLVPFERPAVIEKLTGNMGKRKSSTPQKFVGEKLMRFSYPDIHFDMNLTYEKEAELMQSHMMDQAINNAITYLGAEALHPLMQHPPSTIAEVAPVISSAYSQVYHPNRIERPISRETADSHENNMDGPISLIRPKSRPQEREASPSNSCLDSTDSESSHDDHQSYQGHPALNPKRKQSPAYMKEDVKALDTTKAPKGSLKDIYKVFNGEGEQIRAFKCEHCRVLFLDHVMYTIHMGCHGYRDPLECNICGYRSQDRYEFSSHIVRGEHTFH
T1 sequence (Q96SW2 whole entry): as the sequence (Q96SW2 whole entry) above
T1 sequence (Q16531 whole entry partner): as the sequence (Q16531 whole entry partner) above

Structure (SMILES)	IKZF2 substrate protein remaining % [1, 9]	IKZF3 substrate protein remaining % [2, 9]	CK1α substrate protein remaining % [3, 9]	IC50 [4]	WEE1 substrate protein remaining % [5, 9]	IC50 [6]	IKZF1 substrate protein remaining % [7, 9]	GSPT1 substrate protein remaining % [8, 9]	substrate protein remaining % IKZF2 [1]	substrate protein remaining % IKZF3 [2]	substrate protein remaining % CK1α [3]	substrate protein remaining % WEE1 [5]	substrate protein remaining % IKZF1 [7]	substrate protein remaining % GSPT1 [8]
O=C1CCN(N2Cc3cc(CN4CCN(C(c5cccc(F)c5)c5cccc(F)c5)CC4)ccc3C2=O)C(=O)N1 [GT-07293, 1-(5-((4-(bis(3-fluorophenyl)methyl)piperazin-1-yl)methyl)-1-oxoisoindolin-2-yl)dihydropyrimidine-2,4(1H,3H)-dione]	A ("A" is defined as 0% ≤ substrate protein remaining % ≤ 80%)	A ("A" is defined as 0% ≤ substrate protein remaining % ≤ 80%)	B ("B" is defined as 80%< substrate protein remaining %≤ 100%)	100 to 300 nM	A ("A" is defined as 0% ≤ substrate protein remaining % ≤ 80%)	100 to 300 nM	B ("B" is defined as 80%< substrate protein remaining %≤ 100%)	A ("A" is defined as 0% ≤ substrate protein remaining % ≤ 80%)						
O=C1CCN(N2Cc3cc(CN4CC=C(c5ccnc(Cl)c5Cl)CC4)ccc3C2=O)C(=O)N1 [GT-07432, 1-(5-((2',3'-dichloro-3,6-dihydro-[4,4'-bipyridin]-1(2H)-yl)methyl)-1-oxoisoindolin-2-yl)dihydropyrimidine-2,4(1H,3H)-dione]				500 to 1000 nM		300 to 500 nM			A (0% ≤ substrate protein remaining % ≤ 80%)	A (0% ≤ substrate protein remaining % ≤ 80%)	A (0% ≤ substrate protein remaining % ≤ 80%)	A (0% ≤ substrate protein remaining % ≤ 80%)	A (0% ≤ substrate protein remaining % ≤ 80%)	A (0% ≤ substrate protein remaining % ≤ 80%)
O=C1CCN(N2Cc3cc(CN4CCC(c5cccs5)CC4)ccc3C2=O)C(=O)N1 [GT-07511, 1-(1-oxo-5-((4-(thiophen-2-yl)piperidin-1-yl)methyl)isoindolin-2-yl)dihydropyrimidine-2,4(1H,3H)-dione]				500 to 1000 nM		500 to 1000 nM			A (0% ≤ substrate protein remaining % ≤ 80%)	B (80%< substrate protein remaining %≤ 100%)	A (0% ≤ substrate protein remaining % ≤ 80%)	A (0% ≤ substrate protein remaining % ≤ 80%)	A (0% ≤ substrate protein remaining % ≤ 80%)	A (0% ≤ substrate protein remaining % ≤ 80%)
Cn1cc(C2CCN(Cc3ccc4c(c3)CN(N3CCC(=O)NC3=O)C4=O)CC2)c2ccc(F)cc21 [GT-07575, 1-(5-((4-(6-fluoro-1-methyl-1H-indol-3-yl)piperidin-1-yl)methyl)-1-oxoisoindolin-2-yl)dihydropyrimidine-2,4(1H,3H)-dione]				100 to 300 nM		100 to 300 nM			A (0% ≤ substrate protein remaining % ≤ 80%)	A (0% ≤ substrate protein remaining % ≤ 80%)	A (0% ≤ substrate protein remaining % ≤ 80%)	A (0% ≤ substrate protein remaining % ≤ 80%)	A (0% ≤ substrate protein remaining % ≤ 80%)	A (0% ≤ substrate protein remaining % ≤ 80%)
O=C1CCN(N2Cc3cc(CN4CC=C(c5c[nH]c6ncccc56)CC4)ccc3C2=O)C(=O)N1 [GT-07577, 1-(5-((4-(1H-pyrrolo[2,3-b]pyridin-3-yl)-3,6-dihydropyridin-1(2H)-yl)methyl)-1-oxoisoindolin-2-yl)dihydropyrimidine-2,4(1H,3H)-dione]				500 to 1000 nM		300 to 500 nM			B (80%< substrate protein remaining %≤ 100%)	A (0% ≤ substrate protein remaining % ≤ 80%)	A (0% ≤ substrate protein remaining % ≤ 80%)	A (0% ≤ substrate protein remaining % ≤ 80%)	A (0% ≤ substrate protein remaining % ≤ 80%)	A (0% ≤ substrate protein remaining % ≤ 80%)
O=C1CCN(N2Cc3cc(CN4CC=C(c5n[nH]c6cc(F)ccc56)CC4)ccc3C2=O)C(=O)N1 [GT-07578, 1-(5-((4-(6-fluoro-1H-indazol-3-yl)-3,6-dihydropyridin-1(2H)-yl)methyl)-1-oxoisoindolin-2-yl)dihydropyrimidine-2,4(1H,3H)-dione]				50 to 100 nM		50 to 100 nM			A (0% ≤ substrate protein remaining % ≤ 80%)	B (80%< substrate protein remaining %≤ 100%)	B (80%< substrate protein remaining %≤ 100%)	A (0% ≤ substrate protein remaining % ≤ 80%)	A (0% ≤ substrate protein remaining % ≤ 80%)	A (0% ≤ substrate protein remaining % ≤ 80%)
O=C1CCN(N2Cc3cc(CN4CC=C(c5cccc6c(F)cccc56)CC4)ccc3C2=O)C(=O)N1 [GT-07590, 1-(5-((4-(5-fluoronaphthalen-1-yl)-3,6-dihydropyridin-1(2H)-yl)methyl)-1-oxoisoindolin-2-yl)dihydropyrimidine-2,4(1H,3H)-dione]				50 to 100 nM		10 to 50 nM			A (0% ≤ substrate protein remaining % ≤ 80%)	A (0% ≤ substrate protein remaining % ≤ 80%)	B (80%< substrate protein remaining %≤ 100%)	A (0% ≤ substrate protein remaining % ≤ 80%)	A (0% ≤ substrate protein remaining % ≤ 80%)	A (0% ≤ substrate protein remaining % ≤ 80%)
